Measured values reported in ChEMBL document CHEMBL4837185, “Emerimicins V-X, 15-Residue Peptaibols Discovered from an Acremonium sp. through Integrated Genomic and Chemical Approaches” (J Nat Prod, 2021).
Converted amounts (≈) assume the structure as drawn.

How the values were obtained:
Staphylococcus aureus = assay: Antibacterial activity against methicillin-resistant Staphylococcus aureus ATCC 1556 assessed as inhibition of bacterial growth measured after 16 to 20 hrs by CLSI broth microdilution method; assay type: functional; conditions: time 16-20 hrs
Enterococcus faecalis [1] = assay: Antibacterial activity against Enterococcus faecalis ATCC 19433 assessed as inhibition of bacterial growth measured after 16 to 20 hrs by CLSI broth microdilution method; assay type: functional; conditions: time 16-20 hrs
Enterococcus faecalis [2] = assay: Antibacterial activity against vancomycin-resistant Enterococcus faecalis ATCC 51299 assessed as inhibition of bacterial growth measured after 16 to 20 hrs by CLSI broth microdilution method; assay type: functional; conditions: time 16-20 hrs
Pseudomonas aeruginosa = assay: Antibacterial activity against Pseudomonas aeruginosa ATCC 27853 assessed as inhibition of bacterial growth measured after 16 to 20 hrs by CLSI broth microdilution method; assay type: functional; conditions: time 16-20 hrs
[3] = Toxicity in zebra fish embryo assessed as survival rate at 100 ug/ml incubated for 48 hrs; set-up: species or system Danio rerio; conditions: zebrafish, zebrafish embryos, at 100 µg/mL
[4] = Toxicity in zebra fish embryo assessed as mortality at 33 ug/ml incubated for 48 hrs; set-up: species or system Danio rerio; conditions: zebrafish, dose 33 µg/ml
[5] = Toxicity in zebra fish embryo assessed as mortality at 100 ug/ml incubated for 48 hrs; set-up: species or system Danio rerio; conditions: zebrafish, dose 100 µg/ml

Compound | MIC (Staphylococcus aureus) [µg/mL] | MIC (Enterococcus faecalis [1]) [µg/mL] | MIC (Enterococcus faecalis [2]) [µg/mL] | MIC (Pseudomonas aeruginosa) [µg/mL] | survival at 48 h, 100 ug/ml [3] [%] | Activity [4] | Activity [5]
CC[C@@](C)(NC(=O)[C@H](CC(C)C)NC(=O)CNC(=O)C(C)(C)NC(=O)C(C)(C)NC(=O)C(C)(C)NC(=O)C(C)(C)NC(=O)[C@@H](NC(C)=O)C(C)C)C(=O)NC(C)(C)C(=O)N1C[C@H](O)C[C@H]1C(=O)N[C@@H](CCC(N)=O)C(=O)N[C@](C)(CC)C(=O)N1C[C@H](O)C[C@H]1C(=O)NC(C)(C)C(=O)N[C@H](CO)Cc1ccccc1 | > 100 | > 100 | > 100 | > 100 | 70 | – | –
GENTAMICIN | 4 | 8 | 4 | 2 | – | – | –
CC[C@@](C)(NC(=O)[C@H](CC(C)C)NC(=O)CNC(=O)[C@@](C)(CC)NC(=O)C(C)(C)NC(=O)C(C)(C)NC(=O)C(C)(C)NC(=O)[C@H](Cc1ccccc1)NC(C)=O)C(=O)NC(C)(C)C(=O)N1C[C@H](O)C[C@H]1C(=O)N[C@@H](CCC(N)=O)C(=O)N[C@](C)(CC)C(=O)N1C[C@H](O)C[C@H]1C(=O)NC(C)(C)C(=O)N[C@H](CO)Cc1ccccc1 | 32 (≈ 20.2 µM) | 64 (≈ 40.3 µM) | 64 (≈ 40.3 µM) | > 100 | – | Toxic | –
CC[C@@](C)(NC(=O)[C@H](CC(C)C)NC(=O)CNC(=O)[C@@](C)(CC)NC(=O)C(C)(C)NC(=O)C(C)(C)NC(=O)C(C)(C)NC(=O)[C@H](CC(C)C)NC(C)=O)C(=O)NC(C)(C)C(=O)N1C[C@H](O)C[C@H]1C(=O)N[C@@H](CCC(N)=O)C(=O)N[C@](C)(CC)C(=O)N1C[C@H](O)C[C@H]1C(=O)NC(C)(C)C(=O)N[C@H](CO)Cc1ccccc1 | > 100 | > 100 | > 100 | > 100 | – | – | Toxic
CC[C@@](C)(NC(=O)[C@H](CC(C)C)NC(=O)CNC(=O)[C@@](C)(CC)NC(=O)C(C)(C)NC(=O)C(C)(C)NC(=O)C(C)(C)NC(=O)[C@@H](NC(C)=O)C(C)C)C(=O)NC(C)(C)C(=O)N1C[C@H](O)C[C@H]1C(=O)N[C@@H](CCC(N)=O)C(=O)N[C@](C)(CC)C(=O)N1C[C@H](O)C[C@H]1C(=O)NC(C)(C)C(=O)N[C@H](CO)Cc1ccccc1 | > 100 | > 100 | > 100 | > 100 | 75 | – | –
CC[C@@](C)(NC(=O)[C@H](CC(C)C)NC(=O)CNC(=O)C(C)(C)NC(=O)C(C)(C)NC(=O)C(C)(C)NC(=O)C(C)(C)NC(=O)[C@H](CC(C)C)NC(C)=O)C(=O)NC(C)(C)C(=O)N1C[C@H](O)C[C@H]1C(=O)N[C@@H](CCC(N)=O)C(=O)N[C@](C)(CC)C(=O)N1C[C@H](O)C[C@H]1C(=O)NC(C)(C)C(=O)N[C@H](CO)Cc1ccccc1 | > 100 | > 100 | > 100 | > 100 | – | – | Toxic
CC[C@@](C)(NC(=O)[C@H](CC(C)C)NC(=O)CNC(=O)C(C)(C)NC(=O)C(C)(C)NC(=O)C(C)(C)NC(=O)C(C)(C)NC(=O)[C@H](Cc1ccccc1)NC(C)=O)C(=O)NC(C)(C)C(=O)N1C[C@H](O)C[C@H]1C(=O)N[C@@H](CCC(N)=O)C(=O)N[C@](C)(CC)C(=O)N1C[C@H](O)C[C@H]1C(=O)NC(C)(C)C(=O)N[C@H](CO)Cc1ccccc1 | 64 (≈ 40.7 µM) | > 100 | > 100 | > 100 | – | Toxic | –
CC(=O)O[C@H]1C[C@@]2(C)[C@@H](CC[C@H]3[C@@]4(C)C=CC(=O)[C@@H](C)[C@@H]4[C@H](OC(C)=O)C(=O)[C@@]32C)/C1=C(\CCC=C(C)C)C(=O)O [HELVOLIC ACID] | 4 (≈ 7.03 µM) | 16 (≈ 28.1 µM) | 8 (≈ 14.1 µM) | > 100 | – | – | –
